From US8288552B2, “Dihydropyridone amidesas P2X7 modulators” (Roche Palo Alto LLC, priority 2008, dated 2012)

What follows are compounds tested against T1, P2X7 (UniProt Q99572) (assay: P2X7 pKi of Table 1).
T1 sequence (Q99572 1-595): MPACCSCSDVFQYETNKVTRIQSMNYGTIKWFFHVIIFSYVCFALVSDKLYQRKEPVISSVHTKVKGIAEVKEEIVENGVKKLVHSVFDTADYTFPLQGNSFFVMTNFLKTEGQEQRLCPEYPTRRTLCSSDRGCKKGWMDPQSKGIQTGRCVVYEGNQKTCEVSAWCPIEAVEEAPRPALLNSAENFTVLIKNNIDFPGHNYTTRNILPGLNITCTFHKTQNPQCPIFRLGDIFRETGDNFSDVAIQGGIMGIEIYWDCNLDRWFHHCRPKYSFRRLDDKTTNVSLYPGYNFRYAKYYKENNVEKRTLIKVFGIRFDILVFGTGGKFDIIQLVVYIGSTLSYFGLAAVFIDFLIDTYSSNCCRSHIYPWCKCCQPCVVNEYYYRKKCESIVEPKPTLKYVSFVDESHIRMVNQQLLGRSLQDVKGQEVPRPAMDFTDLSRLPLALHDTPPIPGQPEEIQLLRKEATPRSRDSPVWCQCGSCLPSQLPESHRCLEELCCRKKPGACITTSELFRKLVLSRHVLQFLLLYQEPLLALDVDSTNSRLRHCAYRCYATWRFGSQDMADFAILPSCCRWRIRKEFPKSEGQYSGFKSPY
Type: cell-based
Summary of the method: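 Human P2X7 in 1321N1 cells and rat P2X7 in HEK293 cells, loaded with fluo-3 for 1 hr at 37° C, then exposed to antagonist for 20 min at room temperature. BzATP agonist was used at 100 μM final (human) or 5 μM final (rat), with fluorescence read for 5 min. The response was normalized to maximal fluorescence evoked by 5 μM ionomycin.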

SMILES	pKi
O=C1C[C@@H](c2ccc(F)cc2)C(C(=O)Nc2cccc(Cl)c2Cl)=CN1 [Compound 128, (S)-4-(4-Fluoro-phenyl)-6-oxo-1,4,5,6-tetrahydro-pyridine-3-carboxylic acid (2,3-dichloro-phenyl)-amide]	6.75
Cc1cc(Cl)c(NC(=O)C2=CNC(=O)C[C@H]2c2ccc(F)cc2)cc1OCCO [Compound 129, (S)-4-(4-Fluoro-phenyl)-6-oxo-1,4,5,6-tetrahydro-pyridine-3-carboxylic acid[2-chloro-5-(2-hydroxy-ethoxy)-4-methyl-phenyl]-amide]	7.265
Cc1cc(Cl)c(OCC(=O)N(C)C)cc1NC(=O)C1=CNC(=O)C[C@H]1c1ccc(F)cc1 [Compound 130, (S)-4-(4-Fluoro-phenyl)-6-oxo-1,4,5,6-tetrahydro-pyridine-3-carboxylic acid(4-chloro-5-dimethylcarbamoyl-methoxy-2-methyl-phenyl)-amide]	7.2767
COc1cc(C)c(NC(=O)C2=CNC(=O)C[C@H]2c2ccc(Cl)cc2)cc1OC [Compound 131, (S)-4-(4-Chloro-phenyl)-6-oxo-1,4,5,6-tetrahydro-pyridine-3-carboxylic acid (4,5-dimethoxy-2-methyl-phenyl)-amide]	6.165
COc1cc(C)c(NC(=O)C2=CNC(=O)C[C@@H]2c2ccc(Cl)cc2)cc1OC [Compound 132, (R)-4-(4-Chloro-phenyl)-6-oxo-1,4,5,6-tetrahydro-pyridine-3-carboxylic acid (4,5-dimethoxy-2-methyl-phenyl)-amide]	6.38
COc1ccc(NC(=O)C2=CNC(=O)C[C@H]2c2ccc(F)cc2)cc1OC [Compound 133, (S)-4-(4-Fluoro-phenyl)-6-oxo-1,4,5,6-tetrahydro-pyridine-3-carboxylic acid (3,4-dimethoxy-phenyl)-amide]	6.04
CNC(=O)COc1cc(NC(=O)C2=CNC(=O)C[C@H]2c2ccc(F)cc2)c(C)cc1Cl [Compound 134, (S)-4-(4-Fluoro-phenyl)-6-oxo-1,4,5,6-tetrahydro-pyridine-3-carboxylic acid(4-chloro-2-methyl-5-methylcarbamoylmethoxy-phenyl)-amide]	6.24
Cc1ccc(C(N)=O)cc1NC(=O)C1=CNC(=O)C[C@H]1c1ccc(F)cc1 [Compound 135, (S)-4-(4-Fluoro-phenyl)-6-oxo-1,4,5,6-tetrahydro-pyridine-3-carboxylic acid(5-carbamoyl-2-methyl-phenyl)-amide]	5.8767
O=C1CC(c2ccccc2)C(C(=O)NC2CCc3ccccc32)=CN1 (stereo not shown) [Compound 136, 6-Oxo-4-phenyl-1,4,5,6-tetrahydro-pyridine-3-carboxylic acid indan-1-ylamide]	5.412
O=C1CC(c2cccc(F)c2)C(C(=O)Nc2cc3c(cc2Cl)OC(F)(F)O3)=CN1 (stereo not shown) [Compound 137, 4-(3-Fluoro-phenyl)-6-oxo-1,4,5,6-tetrahydro-pyridine-3-carboxylic acid(6-chloro-2,2-difluoro-benzo[1,3]dioxol-5-yl)-amide]	4.98
O=C1CC(c2ccc(F)cc2)C(C(=O)Nc2cc3c(cc2Br)OCCO3)=CN1 (stereo not shown) [Compound 138, 4-(4-Fluoro-phenyl)-6-oxo-1,4,5,6-tetrahydro-pyridine-3-carboxylic acid(7-bromo-2,3-dihydro-benzo[1,4]dioxin-6-yl)-amide]	6.69
O=C1CC(c2ccc(F)cc2)C(C(=O)Nc2cc3c(cc2Cl)OC(F)(F)O3)=CN1 (stereo not shown) [Compound 139, 4-(4-Fluoro-phenyl)-6-oxo-1,4,5,6-tetrahydro-pyridine-3-carboxylic acid(6-chloro-2,2-difluoro-benzo[1,3]dioxol-5-yl)-amide]	5.46
Cc1cc2c(cc1NC(=O)C1=CNC(=O)C[C@H]1c1ccc(F)cc1)OCCO2 [Compound 140, (S)-4-(4-Fluoro-phenyl)-6-oxo-1,4,5,6-tetrahydro-pyridine-3-carboxylic acid(7-methyl-2,3-dihydro-benzo[1,4]dioxin-6-yl)-amide]	6.94
Cc1cc(F)c(OCCO)cc1NC(=O)C1=CNC(=O)C[C@H]1c1ccc(F)cc1 [Compound 141, (S)-4-(4-Fluoro-phenyl)-6-oxo-1,4,5,6-tetrahydro-pyridine-3-carboxylic acid[4-fluoro-5-(2-hydroxy-ethoxy)-2-methyl-phenyl]-amide]	7.285
Cc1cc(Cl)c(OCCO)cc1NC(=O)C1=CN(C)C(=O)C[C@H]1c1ccc(F)cc1 [Compound 142, (S)-4-(4-Fluoro-phenyl)-1-methyl-6-oxo-1,4,5,6-tetrahydro-pyridine-3-carboxylic acid[4-chloro-5-(2-hydroxy-ethoxy)-2-methyl-phenyl]-amide]	6.835
Cc1cc(F)c(OCCO)cc1NC(=O)C1=CN(C)C(=O)C[C@H]1c1ccc(F)cc1 [Compound 143, (S)-4-(4-Fluoro-phenyl)-1-methyl-6-oxo-1,4,5,6-tetrahydro-pyridine-3-carboxylic acid[4-fluoro-5-(2-hydroxy-ethoxy)-2-methyl-phenyl]-amide]	6.535
CCN1C=C(C(=O)Nc2cc(OC)c(OC)cc2C)[C@H](c2ccc(F)cc2)CC1=O [Compound 144, (S)-1-Ethyl-4-(4-fluoro-phenyl)-6-oxo-1,4,5,6-tetrahydro-pyridine-3-carboxylic acid(4,5-dimethoxy-2-methyl-phenyl)-amide]	7.06
CCOC(=O)Cc1ccc(C)c(NC(=O)C2=CNC(=O)C[C@H]2c2ccc(F)cc2)c1 [Compound 145, (3-{[(S)-4-(4-Fluoro-phenyl)-6-oxo-1,4,5,6-tetrahydro-pyridine-3-carbonyl]-amino}-4-methyl-phenyl)-acetic acid ethyl ester]	6.55
COc1cc(C)c(NC(=O)C2=CN(CCO)C(=O)C[C@H]2c2ccc(F)cc2)cc1OC [Compound 146, (S)-4-(4-Fluoro-phenyl)-1-(2-hydroxy-ethyl)-6-oxo-1,4,5,6-tetrahydro-pyridine-3-carboxylic acid(4,5-dimethoxy-2-methyl-phenyl)-amide]	7.71
COC[C@@H](O)COc1cc(NC(=O)C2=CN(C)C(=O)C[C@H]2c2ccc(F)cc2)c(C)cc1Cl [Compound 147, (S)-4-(4-Fluoro-phenyl)-1-methyl-6-oxo-1,4,5,6-tetrahydro-pyridine-3-carboxylic acid[4-chloro-5-((S)-2-hydroxy-3-methoxy-propoxy)-2-methyl-phenyl]-amide]	5.85
COC[C@@H](O)COc1cc(NC(=O)C2=CNC(=O)C[C@H]2c2ccc(F)cc2)c(C)cc1Cl [Compound 148, (S)-4-(4-Fluoro-phenyl)-6-oxo-1,4,5,6-tetrahydro-pyridine-3-carboxylic acid[4-chloro-5-((S)-2-hydroxy-3-methoxy-propoxy)-2-methyl-phenyl]-amide]	6.49
COC[C@@H](O)COc1cc(NC(=O)C2=CN(C)C(=O)C[C@H]2c2cccc(F)c2)c(C)cc1Cl [Compound 149, (S)-4-(3-Fluoro-phenyl)-1-methyl-6-oxo-1,4,5,6-tetrahydro-pyridine-3-carboxylic acid[4-chloro-5-((S)-2-hydroxy-3-methoxy-propoxy)-2-methyl-phenyl]-amide]	6.035
